Results published in US20150057375A1, “USE OF IMPROVED N-ALKYL PYRROLIDONE SOLVENT” (TAMINCO, priority 2012, published 2015).
“Also recorded” adds a separate entry of the source.

Assays:
[1] = EU classification / screening test; cited from earlier work
[2] = system: female Han Wistar rat (embryo and foetus); assay: Screening study of effects on development of the embryo and foetus after gavage of pregnant rats (similar to OECD 422); format: in vivo; conditions: for Bone and cartilage abnormalities and variations / ossification and supernumerary ribs; test item-related effects in the foetuses / Weights of the foetuses: 100 mg/kg body weight/day to dams
Experimental: The purpose of this study was to detect effects of 4 test items or compounds on the development of the embryo and foetus consequent to exposure of the female Han Wistar rat to the test items from day 6 post coitum (implantation) to day 20 post coitum (the day prior to Caesarean section). Particular attention was given to the foetal skeleton. Each group received one test compound, at a dose level of 100 or 500 mg/kg/day. The results were compared to a negative control group, which were administered distilled water (Aqua dest.).
Each group consisted of 5 mated females, treated by gavage, once daily as follows:
A standard dose volume of […] body weight with a daily adjustment to the actual body weight was used.
The foetuses were removed from the uterus, sexed, weighed individually, examined for gross external abnormalities, sacrificed by a subcutaneous injection of sodium pentobarbital, eviscerated and with the exception of over the paws, the skin was removed and discarded. Carcasses were processed through solutions of ethanol, glacial acetic acid with Alcian blue (for cartilage staining), potassium hydroxide with Alizarin red S (for clearing and staining ossified bone) and aqueous glycerine for preservation and storage. The skeletons were examined and all abnormal findings and variations were recorded.

rat = conditions: in vivo; cited from earlier work
[3] = 500 mg/kg body weight/day to dams
[4] = 500 mg/kg body weight/day, gavage
[5] = 500 mg/kg body weight/day, gavage once daily, day 6-20 post coitum, 5 mated females per group
[6] = 100 mg/kg body weight/day, gavage

Compound | Weights of the foetuses (male and female) [2, 3] | Maternal food consumption at start of treatment, days 6-9 p.c. [2, 4] | Bedding in the mouth (females/dams affected) [2, 5] | Weights of the foetuses [2] | Reprotoxicity [1] | Incidence of zygomatic arch fusion in the skull of foetuses [2, 3] | Maternal absolute body weight [2, 4] | Maternal body weight gain [2, 4] | Maternal corrected body weight gain [2, 4] | Bone and cartilage abnormalities and variations / ossification and supernumerary ribs; test item-related effects in the foetuses [2] | Maternal mean body weight, body weight gain and corrected body weight gain [2, 6] | Maternal mean food consumption vs control group [2, 6] | also measured
CC1CCC(=O)N1C (centres unmarked) [DMP, 1,5-dimethylpyrrolidone] |  |  |  |  | suspected as being reprotoxic |  |  |  |  |  |  |  | 
CC(C)CN1CCCC1=O [N-isobutylpyrrolidone] |  |  |  | not affected |  |  |  |  |  | no test item-related findings; also recorded: No test item-related effects | no effects; also recorded: not affected | no effects | 
CN1CCCC1=O [NMP, N-methylpyrrolidone] |  |  |  |  | reprotoxic category 2 |  |  |  |  |  |  |  | Toxicity, LD50 oral rat (rat): 3914 mg/kg

Further lines, with some results ahead:

Weights of the foetuses (male and female) [2, 3] | Maternal food consumption at start of treatment, days 6-9 p.c. [2, 4] | Bedding in the mouth (females/dams affected) [2, 5] | Weights of the foetuses [2] | Compound | Reprotoxicity [1] | Incidence of zygomatic arch fusion in the skull of foetuses [2, 3] | Maternal absolute body weight [2, 4] | Maternal body weight gain [2, 4] | Maternal corrected body weight gain [2, 4] | Bone and cartilage abnormalities and variations / ossification and supernumerary ribs; test item-related effects in the foetuses [2] | Maternal mean body weight, body weight gain and corrected body weight gain [2, 6] | Maternal mean food consumption vs control group [2, 6] | also measured
statistically significantly reduced | decreased slightly | 4 |  | CC(C)N1CCCC1=O [N-isopropylpyrrolidone] |  | slightly increased | did not have a clear effect | statistically significantly reduced | reduced but not statistically significantly |  |  |  | Incidence of cervical ribs in foetuses [2, 3]: clearly increased incidence; Incompletely ossified cranial structures in foetuses [2, 3]: slightly increased; Number of foetuses per dam [2, 3]: decreased; Post-implantation loss and embryonic resorptions [2, 3]: increased; Maternal mean food consumption after days 6-9 p.c. / overall vs control group [2, 4]: recovered thereafter
 |  |  | not affected | CCCCN1CCCC1=O [N-n-butylpyrrolidone] |  |  |  |  |  | no test item-related findings; also recorded: No test item-related effects | No effects | No effects; also recorded: not considered to have been affected | Bedding in the mouth (females affected) ([2]; 100 mg/kg body weight/day, gavage once daily, day 6-20 post coitum, 5 mated females per group): one female
statistically significantly reduced | statistically significantly reduced | all females |  | CCCN1CCCC1=O [N-n-propylpyrrolidone] |  | increased incidence | at no time statistically significantly reduced | statistically significantly reduced | reduced without statistical significance |  |  |  | Incidence of non-ossified cervical vertebral bodies and supernumerary ribs in foetuses [2, 3]: slightly increased incidence; Mean food consumption compared to the control group ([2]; 500 mg/kg body weight/day, treatment period days 6-21 p.c.): −9.1%; Maternal corrected body weight gain ([2]; 500 mg/kg body weight/day, control group 11.1%): 7.6%; Maternal body weight gain over the treatment period ([2]; 500 mg/kg body weight/day, control group 49%): 36%
